{
  "source": "patent US9283212B2",
  "about": "“Pharmaceutical preparation and delivery system” (PALMAYA PTY LTD, priority 2009, dated 2016)",
  "key": {"[1]": {"system": "patients with addiction, chronic anxiety or sleep disorders", "experiment": "continuous subcutaneous infusion of flumazenil in patients (case study and observations)", "assay_type": "in vivo, human", "conditions": "intravenous infusions below 80 μg/h"}, "[2]": {"system": "patients with cravings for smoking", "conditions": "patient controlled delivery, agent alone", "excerpt": "In one experiment, flumazenil and naltrexone were mixed to capture the benefits of mixing a benzodiazepine antagonist and an opiate antagonist to be given in a pulsative manner when cravings were observed."}, "[3]": {"conditions": "cited from earlier work"}, "[4]": {"conditions": "cited from earlier work", "remark": "listed apart in the source"}, "[5]": {"system": "subjects with panic disorder, social anxiety or alcohol dependence", "conditions": "cited from earlier work"}, "[6]": {"system": "patients with addiction, chronic anxiety or sleep disorders", "experiment": "continuous subcutaneous infusion of flumazenil in patients (case study and observations)", "assay_type": "in vivo, human", "procedure": "A solution of flumazenil in saline solution was prepared by dissolving 16 mg of flumazenil in 30 mL of saline and adjusting the pH to between 6.5 to 7.0 with a phosphate buffer, solution (pH 5.0). The final concentration of flumazenil in saline is 0.53 mg/mL.\nA solution of flumazenil in saline was prepared as set out above. That is, a portion of 12 to 16 mg flumazenil in 30 mL of saline was prepared for the subcutaneous administration via a spring driven 30 mL pump. The pump used was a portable infusion Springfusor pump (O'Neil Balloon Infuser, ID: SBI-100; Go Medical Industries). The delivery rate of the flumazenil was in the order of 40 to 1000 μg/h.\nA Springfusor pump connected to tubing and a butterfly cannula was set up, wherein the pump was loaded with 30 mL of flumazenil solution (0.53 mg/mL). The butterfly cannula was inserted into the patient's abdomen using standard techniques and the pump set to delivery flumazenil at a rate of 166 μg/h. After the initial four day (96 hour) administration, the pump was reloaded with a further 30 mL of flumazenil solution (0.53 mgmL) and delivery continued for a further four days (96 hours). The subcutaneous infusion continued for a total of three weeks."}, "[7]": {"system": "patient suffering from chronic anxiety", "experiment": "patient controlled subcutaneous pump, single dose, heart rate and anxiety", "assay_type": "in vivo, human", "procedure": "The heart rate and the body movement of the patient were recorded using standard equipment."}, "[8]": {"conditions": "continuous subcutaneous infusion"}},
  "note": "“Also recorded” adds a separate entry of the source.",
  "data": [
    {"compound": "CCOC(=O)c1ncn2c1CN(C)C(=O)c1cc(F)ccc1-2", "note": "[flumazenil]", "values": [
      {"measurement": "anticonvulsant effect", "setting": "[1]", "result": "failed to stop epileptic convulsions"},
      {"measurement": "symptoms of craving and anxiety", "setting": "[2]", "result": "decrease symptoms of craving and anxiety"},
      {"measurement": "half life", "setting": "[3]; in vivo", "result": "very short half life"},
      {"measurement": "oral bioavailability", "setting": "[3]; oral", "result": "low oral bioavailability"},
      {"measurement": "solubility in acidic aqueous solutions", "setting": "[4]; acidic aqueous solutions", "result": "slightly soluble"},
      {"measurement": "solubility in water", "setting": "[4]; water", "result": "insoluble in water"},
      {"measurement": "panic induction", "setting": "[5]; bolus infusion of 2 mg in 10 minutes, subjects with panic disorder", "result": "can act as a specific panicogen"},
      {"measurement": "effect on social anxiety or alcohol-dependent subjects", "setting": "[5]; intravenous infusion", "result": "no effect"},
      {"measurement": "panic attacks", "setting": "[6]; after full treatment with subcutaneous infusion, one patient", "result": "gone"},
      {"measurement": "anticonvulsant effect", "setting": "[6]; constant subcutaneous delivery of 166 μg/h", "result": "appears to be effective as an anticonvulsant"},
      {"measurement": "sleeping pulse rates", "setting": "[6]; continuous infusion with or without opiate and cannabanoid antagonists, chronic anxiety disorders", "result": "reductions in sleeping pulse rates"},
      {"measurement": "anxiety levels / anxiety disorders", "setting": "[6]; [8]", "result": "reduced; also recorded: marked improvements"},
      {"measurement": "cognitive function", "setting": "[6]; [8]", "result": "improved cognitive functions; also recorded: appeared to improve daily"},
      {"measurement": "dependency on anti-psychotic drugs", "setting": "[6]; continuous subcutaneous infusion 166 μg/h, one patient", "result": "decreased"},
      {"measurement": "sleep patterns / chronic sleep disorders", "setting": "[6]; continuous subcutaneous infusion, 166 μg/h, greater than four days", "result": "better sleep patterns; also recorded: gradually improved; also recorded: good response rates"},
      {"measurement": "cravings for addictive substances (alcohol, smoking, amphetamines, opiates, benzodiazepines)", "setting": "[6]; continuous subcutaneous infusion, during and after infusion", "result": "decreased and eventually were considered negligible; also recorded: reduced; also recorded: reduction in craving for alcohol"},
      {"measurement": "pulse rate", "setting": "[7]; 60 minutes after single 1 mg subcutaneous dose, from close to 120 bpm before", "result": 80, "unit": "bpm"},
      {"measurement": "anxiety", "setting": "[7]; single 1 mg dose via patient controlled subcutaneous pump", "result": "reduction in anxiety"}
    ]}
  ]
}
